Article PMC10570359, “Dietary supplementation of cystinotic mice by lysine inhibits the megalin pathway and decreases kidney cystine content” (Scientific Reports, 2023)
Where two headings read alike, the source gives them in different places.

Legend:
[1] = Urinary and serum amino-acid concentration by mass spectrometry in Ctns KO mice; type: in vivo; conditions: for Urinary alanine / Urinary cystine / Urinary glycine: Ctns KO mice at 8 months of age, 24-h urine, mean ± SEM; for increase of cystinuria: vs control diet; for concentration at 2 months: n = 4
Protocol: (§1) Body weight was recorded before entering the metabolic cages. […] Creatinine clearance was normalized by mouse body weight.
Quantitative analysis of underivatized amino-acids in serum and urine samples was performed using the Amino Acids LC–MS/MS analysis Kit Jasem®. […] Equipment was controlled and data were analyzed using MassHunter Workstation (Agilent Technologies). The assay was validated for selectivity, specificity, linearity and limit of quantification, accuracy and precision, matrix effects and recovery, and stability.

megalin = experiment: Confocal imaging of megalin localization in kidney proximal tubular cells of WT mice; type: in vivo; conditions: WT female mice, two weeks diet, kidney cortex
Protocol: Glom, glomerulus (no detectable megalin signal).
For immunofluorescence, antigen retrieval was promoted in citrate buffer, pH 6, at 95 °C for 20 min using a Lab Vision Pretreatment Module™ (Thermo Scientific). Tissue was permeabilized with PBS/0.3% Triton-X100 for 5 min, then for one further hour with 10% bovine serum albumin (BSA)/3% milk to block non-specific sites. Sections were incubated overnight at 4 °C with the following primary reagents in blocking buffer: sheep anti-megalin (1/800, kindly provided by Drs P. Verroust and R. Kozyraki, INSERM U968, Paris, F-75012, FR), rat anti-LAMP-1 (1/100; #1D4B, Hybridoma Bank), mouse anti-ezrin (1/100, #MS-661-P1, ThermoScientific), mouse anti-Ki67 (1/250, #556003, BD-Pharmingen), rabbit anti-human albumin (1/1000; Dako #A0001). After washing, sections were further incubated with the appropriate AlexaFluor-secondary antibodies for 1 h at room temperature in 10% BSA/0.3% Triton-X100 and mounted with Faramount aqueous mounting medium (Dako). Sections were imaged on a spinning disk confocal microscope using EC Plan-NeoFluar 40X/1.3 or 100x/1.4 Oil DIC objective (Cell Observer Spinning Disk; Zeiss).

megalin pathway [2] = experiment: LMW proteinuria / albuminuria in Ctns KO mice under 5x-dAA diets
Protocol: After 24-h adaptation in metabolic cages, urine was collected during the following 24 h in presence of 0.1% sodium azide and 1x-protease inhibitors (Thermo Scientific). When in metabolic cages, mice had free access to tap water and food. Blood was collected 2 days before starting the treatments and entry into metabolic cages (baseline) and at the sacrifice to obtain serum. Body weight was recorded before entering the metabolic cages. Urine and serum analyses were performed by the veterinary laboratory Appialab Srl (Rome, Italy). Urinary levels of CC16 were measured by the Mouse Clara Cell Protein 16 kit 96 T #EKU03200 (Biomatik) according to manufacturer’s instructions. Serum levels of cystatin-C were measured by the Mouse/Rat Cystatin C Quantitative ELISA #MSCTC0 (R&D Systems). […] Creatinine clearance was normalized by mouse body weight.

[3] = test system: kidney proximal tubular cells; conditions: Ctns KO mice kidneys at 8 months of age
Protocol: For immunofluorescence, antigen retrieval was promoted in citrate buffer, pH 6, at 95 °C for 20 min using a Lab Vision Pretreatment Module™ (Thermo Scientific). Tissue was permeabilized with PBS/0.3% Triton-X100 for 5 min, then for one further hour with 10% bovine serum albumin (BSA)/3% milk to block non-specific sites. […] After washing, sections were further incubated with the appropriate AlexaFluor-secondary antibodies for 1 h at room temperature in 10% BSA/0.3% Triton-X100 and mounted with Faramount aqueous mounting medium (Dako). Sections were imaged on a spinning disk confocal microscope using EC Plan-NeoFluar 40X/1.3 or 100x/1.4 Oil DIC objective (Cell Observer Spinning Disk; Zeiss). Proliferative events in kidney cortex were quantified as described[22].

[4] = Clinical urine and serum analyses in Ctns KO mice under 5x-dAA diets
Description: We also attempted to further discriminate between luminal (competition for surface megalin binding) and intracellular metabolic effects (see Discussion) by comparing the effects of 5x-L-lysine to its stereoisomer, 5x-D-lysine. Unless stated otherwise, diets were initiated at 6 months-of-age, and mice were studied then euthanized at 8 months-of-age (2-months treatment). This time frame was selected for two reasons. First, in the mouse cystinosis model, this an appropriate window to evaluate the impact on PTC alterations based on changes in kidney cystine accumulation and overall function. […] Second, although primary prevention by earlier intervention (from 2-to-6 months-of-age) better mimics perinatal genetic megalin ablation, thus could be more efficient, secondary intervention (starting at 6 months-of-age), when disease becomes clinically apparent, is more relevant for further translational studies.
as §1

porcine megalin = porcine megalin (Sus scrofa, UniProt C0HL13); experiment: Surface plasmon resonance: competition for TC:B12 binding to chip-immobilized megalin; conditions: for IC50: IC50 for TC:B12/megalin interaction (mM; 95%CI), 10 µg/ml TC:B12 in 0 to 100 mM amino-acid, Biacore; for SPR signal of amino-acid alone on megalin chip: chips exposed to increasing concentrations of amino-acid, no analyte
porcine megalin, sequence (C0HL13 26-4652): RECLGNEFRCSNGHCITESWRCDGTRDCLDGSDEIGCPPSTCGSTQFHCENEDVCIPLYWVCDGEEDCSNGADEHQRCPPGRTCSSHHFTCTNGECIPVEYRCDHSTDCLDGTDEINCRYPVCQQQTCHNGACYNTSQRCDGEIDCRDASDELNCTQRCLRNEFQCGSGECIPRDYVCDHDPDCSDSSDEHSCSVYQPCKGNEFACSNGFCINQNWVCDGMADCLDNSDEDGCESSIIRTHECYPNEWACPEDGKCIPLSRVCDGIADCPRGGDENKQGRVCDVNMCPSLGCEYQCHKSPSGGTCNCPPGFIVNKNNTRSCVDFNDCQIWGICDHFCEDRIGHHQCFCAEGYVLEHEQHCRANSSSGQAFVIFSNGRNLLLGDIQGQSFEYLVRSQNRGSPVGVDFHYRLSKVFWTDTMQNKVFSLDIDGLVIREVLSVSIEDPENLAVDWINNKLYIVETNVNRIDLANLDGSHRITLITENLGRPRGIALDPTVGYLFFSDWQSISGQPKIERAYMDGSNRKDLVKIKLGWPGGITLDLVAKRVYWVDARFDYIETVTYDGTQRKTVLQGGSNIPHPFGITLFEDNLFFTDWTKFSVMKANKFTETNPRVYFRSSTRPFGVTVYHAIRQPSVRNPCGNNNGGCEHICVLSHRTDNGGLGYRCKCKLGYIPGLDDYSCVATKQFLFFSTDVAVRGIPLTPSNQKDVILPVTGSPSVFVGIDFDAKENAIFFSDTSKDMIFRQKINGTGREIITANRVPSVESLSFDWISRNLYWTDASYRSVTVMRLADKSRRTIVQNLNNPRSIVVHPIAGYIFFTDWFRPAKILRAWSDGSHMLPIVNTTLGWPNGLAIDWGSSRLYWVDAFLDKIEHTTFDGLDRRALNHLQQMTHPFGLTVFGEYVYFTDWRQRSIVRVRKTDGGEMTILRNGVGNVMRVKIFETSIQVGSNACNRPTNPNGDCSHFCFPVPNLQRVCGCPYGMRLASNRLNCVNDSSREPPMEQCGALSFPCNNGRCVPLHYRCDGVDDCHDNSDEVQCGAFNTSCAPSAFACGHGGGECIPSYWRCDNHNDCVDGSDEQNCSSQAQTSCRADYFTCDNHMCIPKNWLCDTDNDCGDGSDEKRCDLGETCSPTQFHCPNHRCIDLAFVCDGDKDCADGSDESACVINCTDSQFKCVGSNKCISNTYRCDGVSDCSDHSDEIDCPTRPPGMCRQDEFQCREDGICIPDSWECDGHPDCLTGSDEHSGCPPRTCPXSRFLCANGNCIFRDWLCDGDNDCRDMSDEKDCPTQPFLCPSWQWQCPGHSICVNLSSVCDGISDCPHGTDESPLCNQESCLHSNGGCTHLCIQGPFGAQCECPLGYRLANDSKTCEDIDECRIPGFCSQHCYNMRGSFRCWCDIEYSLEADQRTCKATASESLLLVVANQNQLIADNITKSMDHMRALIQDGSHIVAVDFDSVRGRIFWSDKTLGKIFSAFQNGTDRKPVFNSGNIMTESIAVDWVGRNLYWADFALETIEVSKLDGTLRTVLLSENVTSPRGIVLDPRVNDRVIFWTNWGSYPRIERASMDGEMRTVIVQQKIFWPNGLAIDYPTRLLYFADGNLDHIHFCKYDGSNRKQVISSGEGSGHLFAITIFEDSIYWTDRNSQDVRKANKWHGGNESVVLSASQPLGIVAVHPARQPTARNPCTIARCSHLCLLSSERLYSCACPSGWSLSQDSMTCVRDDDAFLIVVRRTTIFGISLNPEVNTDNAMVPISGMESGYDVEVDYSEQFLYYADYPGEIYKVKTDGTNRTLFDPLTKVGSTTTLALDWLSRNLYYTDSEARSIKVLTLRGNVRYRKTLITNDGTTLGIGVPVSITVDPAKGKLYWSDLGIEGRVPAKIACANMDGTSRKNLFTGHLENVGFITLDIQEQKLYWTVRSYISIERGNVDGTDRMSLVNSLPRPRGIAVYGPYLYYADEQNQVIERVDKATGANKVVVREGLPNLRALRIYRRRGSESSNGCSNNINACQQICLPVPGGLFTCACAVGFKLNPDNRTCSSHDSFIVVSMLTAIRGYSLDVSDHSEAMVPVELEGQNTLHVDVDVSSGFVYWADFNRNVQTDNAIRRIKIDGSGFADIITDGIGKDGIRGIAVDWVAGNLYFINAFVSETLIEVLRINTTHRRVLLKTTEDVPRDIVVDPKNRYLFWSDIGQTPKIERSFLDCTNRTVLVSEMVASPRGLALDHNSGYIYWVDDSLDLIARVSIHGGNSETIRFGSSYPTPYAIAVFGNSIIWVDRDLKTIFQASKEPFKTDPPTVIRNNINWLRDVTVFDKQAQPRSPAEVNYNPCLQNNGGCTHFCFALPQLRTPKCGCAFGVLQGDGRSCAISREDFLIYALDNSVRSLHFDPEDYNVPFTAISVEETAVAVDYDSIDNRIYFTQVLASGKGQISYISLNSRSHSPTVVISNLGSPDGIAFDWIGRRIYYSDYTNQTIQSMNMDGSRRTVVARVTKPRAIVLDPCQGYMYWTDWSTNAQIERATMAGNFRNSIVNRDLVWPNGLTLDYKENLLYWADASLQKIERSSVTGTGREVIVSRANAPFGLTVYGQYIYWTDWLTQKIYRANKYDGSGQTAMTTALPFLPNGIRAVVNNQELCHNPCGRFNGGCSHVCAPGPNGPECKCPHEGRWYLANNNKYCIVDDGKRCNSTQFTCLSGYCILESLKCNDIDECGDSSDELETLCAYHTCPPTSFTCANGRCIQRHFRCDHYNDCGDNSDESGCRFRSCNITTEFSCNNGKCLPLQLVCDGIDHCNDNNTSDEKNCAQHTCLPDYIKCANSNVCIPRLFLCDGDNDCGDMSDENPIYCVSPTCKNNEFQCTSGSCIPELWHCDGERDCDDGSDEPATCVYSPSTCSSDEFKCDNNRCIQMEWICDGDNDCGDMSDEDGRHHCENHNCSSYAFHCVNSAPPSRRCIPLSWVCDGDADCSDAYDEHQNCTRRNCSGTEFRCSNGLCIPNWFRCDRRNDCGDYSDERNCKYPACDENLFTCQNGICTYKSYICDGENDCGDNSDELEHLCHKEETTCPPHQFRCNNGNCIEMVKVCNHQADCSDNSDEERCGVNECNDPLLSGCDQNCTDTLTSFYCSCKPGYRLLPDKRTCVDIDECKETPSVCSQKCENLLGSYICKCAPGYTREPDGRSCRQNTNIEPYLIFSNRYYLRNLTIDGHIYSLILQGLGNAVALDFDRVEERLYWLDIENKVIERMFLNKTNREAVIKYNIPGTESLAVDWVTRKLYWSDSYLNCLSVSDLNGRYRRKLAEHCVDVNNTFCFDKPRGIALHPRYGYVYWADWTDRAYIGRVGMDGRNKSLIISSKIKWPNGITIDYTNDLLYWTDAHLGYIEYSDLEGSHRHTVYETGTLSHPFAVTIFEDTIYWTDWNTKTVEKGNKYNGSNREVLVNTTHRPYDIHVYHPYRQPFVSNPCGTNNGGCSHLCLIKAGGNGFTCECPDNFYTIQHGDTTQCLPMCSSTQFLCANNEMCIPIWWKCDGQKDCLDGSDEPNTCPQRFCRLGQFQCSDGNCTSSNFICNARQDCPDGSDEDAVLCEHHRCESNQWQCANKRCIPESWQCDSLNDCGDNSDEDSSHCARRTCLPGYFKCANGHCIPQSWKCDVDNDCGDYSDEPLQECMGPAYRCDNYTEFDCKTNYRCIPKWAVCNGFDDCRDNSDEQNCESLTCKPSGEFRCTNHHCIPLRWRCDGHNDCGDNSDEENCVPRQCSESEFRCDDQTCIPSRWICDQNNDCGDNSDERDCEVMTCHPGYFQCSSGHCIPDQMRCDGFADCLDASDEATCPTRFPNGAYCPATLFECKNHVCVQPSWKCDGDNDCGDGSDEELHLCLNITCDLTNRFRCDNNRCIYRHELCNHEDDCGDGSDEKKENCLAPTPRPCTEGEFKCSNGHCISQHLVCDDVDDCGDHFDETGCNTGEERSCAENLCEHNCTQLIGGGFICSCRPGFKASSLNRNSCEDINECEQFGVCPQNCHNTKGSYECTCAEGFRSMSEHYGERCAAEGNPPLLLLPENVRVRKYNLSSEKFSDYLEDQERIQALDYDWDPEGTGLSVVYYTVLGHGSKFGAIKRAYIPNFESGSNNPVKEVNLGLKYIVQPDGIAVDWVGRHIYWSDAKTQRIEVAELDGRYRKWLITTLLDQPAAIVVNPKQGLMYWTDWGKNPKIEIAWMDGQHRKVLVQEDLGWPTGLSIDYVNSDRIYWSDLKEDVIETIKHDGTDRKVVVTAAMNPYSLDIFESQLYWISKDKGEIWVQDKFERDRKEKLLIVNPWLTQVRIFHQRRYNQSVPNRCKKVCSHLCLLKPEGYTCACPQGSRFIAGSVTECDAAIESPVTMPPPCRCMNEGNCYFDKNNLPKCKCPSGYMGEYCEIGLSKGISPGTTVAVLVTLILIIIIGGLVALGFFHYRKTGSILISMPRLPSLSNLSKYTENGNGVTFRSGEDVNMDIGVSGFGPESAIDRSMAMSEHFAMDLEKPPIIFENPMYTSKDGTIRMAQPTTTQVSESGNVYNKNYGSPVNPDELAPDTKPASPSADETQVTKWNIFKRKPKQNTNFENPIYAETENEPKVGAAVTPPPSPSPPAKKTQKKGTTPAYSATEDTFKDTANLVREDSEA
Protocol: To directly address whether supra-physiological concentrations of dibasic amino-acids (dAAs) can interfere with binding of protein ligands to megalin, we used surface plasmon resonance. Sensor chips were derivatized with porcine megalin at high density. […] After flushing, chips were incubated with 10 µg/ml of three analytes: the megalin chaperone, RAP (receptor-associated protein), as positive control (not shown), or two physiological megalin ligands: transcobalamine:cobalamine complexes (TC:B12; Fig. 1; sensorgrams shown at Supplemental Fig. 1a) or lysozyme (Supplemental Fig. 1b), diluted in 0 to 100 mM of the same amino-acids in buffer. […] The supraphysiological range for effective competition in vitro defined the necessary increment in urinary concentration from dietary supplementation for significant competition in vivo.
Figure 1 Acellular assay: direct competition for transcobalamine:cobalamine binding to megalin immobilized on Biacore sensor chips. Signals of sensorgrams (shown in Supplemental Fig. 1) were normalized to control signal without AA supplementation, taken as the unity, and are means ± SEM of at least four independent technical duplicate values at each of the indicated amino-acid-concentrations.
Surface plasmon resonance (SPR) analysis of the binding to chip-immobilized megalin of receptor-associated protein (RAP), transcobalamine:cobalamine complex (TC:B12) and lysozyme was carried out using a Biacore T200 instrument (Uppsala, Sweden). The sensor chips (type CM5) were activated with a 1:1 mixture of 0.2 M N-ethyl-N′-(3-dimethylaminopropyl) carbodiimide and 0.05 M N-hydroxysuccinimide in H2O. Porcine megalin[49] was immobilized on the chip in 10 mM sodium acetate, pH 4.0, and the remaining binding sites were blocked with 1 M ethanolamine, pH 8.5. The SPR signal generated from immobilized megalin were obtained with a density of 4.5 fmol protein/mm^2.
Human RAP was produced as recombinant protein in E. coli[50] and used to validate the sensor chip. TC was purified and complexed with B12 as described (TC/B12)[50],[51]. Human recombinant lysozyme was purchased from Sigma-Aldrich (expressed in rice, # L1667). Sensorgrams were generated using each of these three ligands at 10 µg/ml in a running buffer consisting of 10 mM Hepes, 150 mM NaCl, 4 mM CaCl2 and 0.05% Tween 20, pH 7.4. The flow cells were regenerated with 1 M ethanolamine pH 9.0. Analyte testing was performed as a dual injection starting with running buffer supplemented with the defined concentrations of amino acids followed by injection of analyte in the same solution. The pH of all buffers was adjusted after amino acids addition. All binding experiments were made as at least independent triplicate of technical duplicates and data were analyzed using the Biacore T200 evaluation software version 3.1.

megalin pathway [5] = experiment: LMW proteinuria (urinary CC16) in WT mice under 5x-dAA diets; type: in vivo; conditions: WT C57Bl-6 mice, 3 weeks diet, vs control diet
Protocol: In a second experiment, 5x-D-lysine was compared to regular diet.
as §1

NaPi-IIa and SGLT-2 = NaPi-IIa and SGLT-2 mRNA levels in Ctns KO mice kidneys; type: in vivo; conditions: Ctns KO mice kidneys at 8 months of age, fold-change viz control diet
Protocol: At cellular level, we assessed PT cell death linked to compensatory renewal, by measuring Ki-67 immunolabelling abundance, a validated proliferation index (Fig. 6a)[22]. […] At subcellular level, NaPi-IIa and SGLT-2 mRNA levels were measured as apical differentiation markers (Fig. 6b,c).
Figure 6 Effects of diets on selected PTC indices in Ctns KO mice kidneys at 8 months of age. (a) Proliferative events in PTCs were identified by Ki-67 immunolabelling in confocal images and scored over random fields to cumulative areas of 0.96 mm^2. […] For representative confocal images and proliferation events in all cortical compartments, see Supplemental Fig. 6. (b,c) Apical differentiation state. Expression levels of NaPi-IIa and SGLT-2 as representative apical PT transporters were calculated as ratios to the housekeeping gene, HPRT1, and presented as fold-change viz control diet.

[6] = Ctns KO mice, daily urine collections
[7] = female, C57BL/6, mouse, in vivo, 2 months
[8] = Ctns KO mice at 8 months of age, 2 months of treatment, urine, mean ± SEM
[9] = Ctns KO mice at 8 months of age, 2 months of treatment, serum, mean ± SEM

NCCCC[C@H](N)C(=O)O [5x-L-lysine, L-lysine]
Urinary alanine [1]: 639.6 ± 279.6 mM/M creatinine
Urinary cystine [1]: 504.5 ± 61.2 mM/M creatinine
Urinary glycine [1]: 881.0 ± 265.9 mM/M creatinine
urinary lysine concentration reached [1, 6]: ~ 25 mM
increase of cystinuria ([1]; Ctns KO mice): 8 fold
increase of argininuria [1, 7]: 25 fold
increase of lysinuria [1, 7]: 210 fold
concentration at 2 months ([1]; female, C57BL/6, mouse, in vivo, 6.5 g/kg/day, Ctns KO mice, read-out: serum lysine): 581 ± 15.5 µM
subcellular localization of megalin in PTCs (megalin): no relocation
increase of microalbuminuria vs control diet (megalin pathway [2]; Ctns KO female mice, diet from 6-to-8 months of age): no detectable increase
Urine CC16/creatinine (megalin pathway [2]; [8]): 4314 ± 540.3 µg/g
Urine microalbumin/creatinine (megalin pathway [2]; [8]): 0.1 ± 0.0 mg/g
Ki-67 proliferation index in PTCs [3]: undistinguishable
Body weight ([4]; Ctns KO mice at 8 months of age, 2 months of treatment, mean ± SEM): 23.0 ± 0.9 g
Serum creatinine [4, 9]: 0.8 ± 0.1 (n = 9) mg/dL
Serum cystatin-C [4, 9]: 669.2 ± 33.2 ng/mL
Serum glucose [4, 9]: 169.1 ± 9.3 (n = 9) mg/dL
Serum phosphate [4, 9]: 10.1 ± 0.5 (n = 9) mg/dL
Serum urea [4, 9]: 58.3 ± 2.6 (n = 9) mg/dL
Daily creatinine output [4, 8]: 0.7 ± 0.1 mg/day
Diuresis [4, 8]: 2.8 ± 0.2 mL/day
Urine creatinine [4, 8]: 25.6 ± 2.5 mg/dL
Urine glucose/creatinine [4, 8]: 19.0 ± 4.6 g/g
Urine phosphate/creatinine [4, 8]: 2.3 ± 0.4 g/g
Urine urea/creatinine [4, 8]: 173.0 ± 15.2 g/g
IC50 (porcine megalin): 25 mM
SPR signal of amino-acid alone on megalin chip (porcine megalin): no signal was detected
increase of urinary excretion of CC16 (normalized for creatinine excretion) (megalin pathway [5]): 7 fold
NaPi-IIa and SGLT-2 mRNA levels (apical differentiation markers) (NaPi-IIa and SGLT-2): significant yet limited benefit

N=C(N)NCCC[C@H](N)C(=O)O [5x-L-arginine, L-arginine]
Urinary alanine [1]: 712.5 ± 216.9 mM/M creatinine
Urinary cystine [1]: 146.6 ± 43.7 mM/M creatinine
Urinary glycine [1]: 963.7 ± 218.1 mM/M creatinine
urinary arginine concentration reached [1, 6]: ~ 1 mM
increase of cystinuria ([1]; Ctns KO mice): twofold
increase of argininuria [1, 7]: 33 fold
concentration at 2 months ([1]; female, C57BL/6, mouse, serum, oral, 7.6 g/kg/day, Ctns KO mice, read-out: serum arginine): 137 ± 35 µM
subcellular localization of megalin in PTCs (megalin): no relocation
Urine CC16/creatinine (megalin pathway [2]; [8]): 3151 ± 556.1 µg/g
Calculated creatinine clearance ([4]; mouse, in vivo): 40.7 ± 3.5 µL/min
Serum creatinine ([4]; mouse, in vivo): 0.9 ± 0.1 mg/dL
Serum cystatin-C ([4]; mouse, in vivo): 1092 ± 56.5 ng/mL
Serum glucose ([4]; mouse, in vivo): 170.9 ± 9.5 mg/dL
Serum phosphate ([4]; mouse, in vivo): 9.7 ± 0.3 mg/dL
Serum urea ([4]; mouse, in vivo): 63.6 ± 3.8 mg/dL
Urine creatinine ([4]; mouse, in vivo): 22.1 ± 2.7 mg/dL
Urine glucose/creatinine ([4]; mouse, in vivo): 25.8 ± 4.0 g/g
Urine phosphate/creatinine ([4]; mouse, in vivo): 1.9 ± 0.2 g/g
Urine urea/creatinine ([4]; mouse, in vivo): 238.2 ± 17.3 g/g
IC50 (porcine megalin): 57 mM
SPR signal of amino-acid alone on megalin chip (porcine megalin): no signal was detected
increase of urinary excretion of CC16 (normalized for creatinine excretion) (megalin pathway [5]): did not detectably increase
NaPi-IIa and SGLT-2 mRNA levels (apical differentiation markers) (NaPi-IIa and SGLT-2): failed to protect
